{"source": "ChEMBL document CHEMBL4270488", "about": "“Antibacterial Compounds from Marine Bacteria, 2010-2015” (J Nat Prod, 2017)", "key": {"Staphylococcus aureus [1]": {"tested_on": "Staphylococcus aureus", "experiment": "Antibacterial activity against Staphylococcus aureus ATCC 29213", "assay_type": "functional"}, "Bacillus thuringiensis": {"tested_on": "Bacillus thuringiensis", "experiment": "Antibacterial activity against Bacillus thuringiensis SCSIO BT01", "assay_type": "functional"}, "Enterococcus faecalis": {"tested_on": "Enterococcus faecalis", "experiment": "Antibacterial activity against Enterococcus faecalis ATCC 29212", "assay_type": "functional"}, "Staphylococcus aureus [2]": {"tested_on": "Staphylococcus aureus", "experiment": "Antibacterial activity against Staphylococcus aureus by broth dilution assay", "assay_type": "functional"}, "Bacillus subtilis [3]": {"tested_on": "Bacillus subtilis", "experiment": "Antibacterial activity against Bacillus subtilis by broth dilution assay", "assay_type": "functional"}, "Escherichia coli [4]": {"tested_on": "Escherichia coli", "experiment": "Antibacterial activity against Escherichia coli by broth dilution assay", "assay_type": "functional"}, "Pseudomonas aeruginosa": {"tested_on": "Pseudomonas aeruginosa", "experiment": "Antibacterial activity against Pseudomonas aeruginosa by broth dilution assay", "assay_type": "functional"}, "Salmonella typhi": {"tested_on": "Salmonella typhi", "experiment": "Antibacterial activity against Salmonella typhi by broth dilution assay", "assay_type": "functional, Salmonella enterica subsp. enterica serovar Typhi", "details": "Salmonella enterica"}, "Bacillus subtilis [5]": {"tested_on": "Bacillus subtilis", "experiment": "Antibacterial activity against Bacillus subtilis SCSIO BS01", "assay_type": "functional"}, "Staphylococcus aureus [6]": {"tested_on": "Staphylococcus aureus", "experiment": "Antibacterial activity against Staphylococcus aureus incubated for 18 hrs", "assay_type": "functional"}, "Bacillus subtilis [7]": {"tested_on": "Bacillus subtilis", "experiment": "Antibacterial activity against Bacillus subtilis by serial dilution assay", "assay_type": "functional"}, "Micrococcus luteus": {"tested_on": "Micrococcus luteus", "experiment": "Antibacterial activity against Micrococcus luteus by serial dilution assay", "assay_type": "functional"}, "Escherichia coli [8]": {"tested_on": "Escherichia coli", "experiment": "Antibacterial activity against Escherichia coli by serial dilution assay", "assay_type": "functional"}, "Proteus vulgaris": {"tested_on": "Proteus vulgaris", "experiment": "Antibacterial activity against Proteus vulgaris by serial dilution assay", "assay_type": "functional"}, "Staphylococcus aureus [9]": {"tested_on": "Staphylococcus aureus", "experiment": "Antibacterial activity against methicillin-resistant Staphylococcus aureus", "assay_type": "functional"}}, "note": "Where a SMILES comes first, the peptide text is derived from it. The star is where a group is joined. X1 = CCC(C)CC(C)CCCC[C@@H](O)CC(=O)*", "data": [{"smiles": "Cc1cc(=O)[nH]c2c1C(=O)c1c(C)cc(=O)n(C)c1C2=O", "values": [{"measurement": "MIC", "setting": "Staphylococcus aureus [1]", "value": "1 to 4", "unit": "µg/mL"}, {"measurement": "MIC", "setting": "Bacillus thuringiensis", "value": "1 to 4", "unit": "µg/mL"}, {"measurement": "MIC", "setting": "Enterococcus faecalis", "value": "1 to 4", "unit": "µg/mL"}]}, {"smiles": "C[C@@H]1CCC/C=C/C=C/[C@H](O)C[C@@H](O)C[C@@H]2O[C@@H]2/C=C/[C@@H](O)C/C=C/C=C\\C(=O)O1", "note": "[GAGEOMACROLACTIN 1]", "values": [{"measurement": "MIC", "setting": "Staphylococcus aureus [2]", "value": 0.01, "unit": "µg/mL"}, {"measurement": "MIC", "setting": "Bacillus subtilis [3]", "value": 0.01, "unit": "µg/mL"}, {"measurement": "MIC", "setting": "Escherichia coli [4]", "value": 0.02, "unit": "µg/mL"}, {"measurement": "MIC", "setting": "Pseudomonas aeruginosa", "value": 0.01, "unit": "µg/mL"}, {"measurement": "MIC", "setting": "Salmonella typhi", "value": 0.02, "unit": "µg/mL"}]}, {"smiles": "CC1(C)OC2=C(C[C@H]1Cl)C(=O)c1c(O)cc(O)cc1C2=O", "values": [{"measurement": "MIC", "setting": "Staphylococcus aureus [1]", "value": "4 to 32", "unit": "µg/mL"}, {"measurement": "MIC", "setting": "Bacillus subtilis [5]", "value": "4 to 32", "unit": "µg/mL"}, {"measurement": "MIC", "setting": "Bacillus thuringiensis", "value": "4 to 32", "unit": "µg/mL"}]}, {"smiles": "C[C@@H]1O[C@](C)(C(=O)O)O[C@H]1/C=C/C=C/C=C/C(=O)O[C@H]1CC[C@H](c2ccc3c(c2O)C(=O)c2cc(O)c4c(c2C3=O)C(=O)[C@H](O)[C@](C)(O)C4)O[C@@H]1C", "values": [{"measurement": "MIC", "setting": "Staphylococcus aureus [6]", "value": "2 to 6", "unit": "µg/mL"}]}, {"smiles": "O=C1NC(=O)C(c2ccc(O)cc2)=C1c1ccccc1", "values": [{"measurement": "MIC", "setting": "Bacillus subtilis [7]", "value": "25 to 100", "unit": "µg/mL"}, {"measurement": "MIC", "setting": "Micrococcus luteus", "value": "25 to 100", "unit": "µg/mL"}, {"measurement": "MIC", "setting": "Escherichia coli [8]", "value": "25 to 100", "unit": "µg/mL"}, {"measurement": "MIC", "setting": "Proteus vulgaris", "value": "25 to 100", "unit": "µg/mL"}]}, {"smiles": "COC(=O)N[C@H]1[C@@H](C)O[C@@H](O[C@H]2C/C=C(\\C)[C@@H]3C=C[C@@H]4[C@@H](O[C@H]5C[C@@H](O[C@H]6C[C@@H](O)[C@@H](O)[C@H](C)O6)[C@@H](O)[C@H](C)O5)[C@@H](C)C[C@H](C)[C@H]4[C@]3(C)C(=O)C3=C(O)[C@@]4(C[C@@H](C)C(C)=C[C@H]4/C=C/2C)OC3=O)C[C@]1(C)[N+](=O)[O-]", "values": [{"measurement": "MIC", "setting": "Staphylococcus aureus [1]", "value": "6.2 to 50", "unit": "µg/mL"}]}, {"smiles": "CC(C)=CCc1cc(C(=O)Nc2c(O)c3ccc(O[C@@H]4OC(C)(C)[C@H](O)[C@@H](OC(N)=O)[C@H]4O)c(C)c3oc2=O)ccc1O", "values": [{"measurement": "MIC", "setting": "Staphylococcus aureus [9]", "value": "8 to 16", "unit": "µg/mL"}]}, {"smiles": "CC(=O)O[C@H]1[C@@H](O)[C@H](Oc2ccc3c(O)c(NC(=O)c4cc(O)c(O)c(CC=C(C)C)c4)c(=O)oc3c2C)OC(C)(C)[C@@H]1O", "values": [{"measurement": "MIC", "setting": "Staphylococcus aureus [9]", "value": "> 64", "unit": "µg/mL"}]}, {"smiles": "O=C1NC(=O)C(c2c[nH]c3ccccc23)=C1c1ccc(O)c([N+](=O)[O-])c1", "values": [{"measurement": "MIC", "setting": "Bacillus subtilis [7]", "value": "3 to 25", "unit": "µg/mL"}, {"measurement": "MIC", "setting": "Micrococcus luteus", "value": "3 to 25", "unit": "µg/mL"}, {"measurement": "MIC", "setting": "Escherichia coli [8]", "value": "3 to 25", "unit": "µg/mL"}, {"measurement": "MIC", "setting": "Proteus vulgaris", "value": "3 to 25", "unit": "µg/mL"}]}, {"smiles": "C[C@@H](O)CCC/C=C/C=C/[C@H](O)C[C@@H](O)C/C=C\\C=C\\C(=O)O", "values": [{"measurement": "MIC", "setting": "Bacillus subtilis [3]", "value": "≥ 16", "unit": "µg/mL"}, {"measurement": "MIC", "setting": "Escherichia coli [4]", "value": "≥ 16", "unit": "µg/mL"}]}, {"smiles": "COC(=O)C[C@H](O)C[C@@H](O)C[C@H](O)/C=C/C=C/CCC[C@@H](C)O", "values": [{"measurement": "MIC", "setting": "Bacillus subtilis [3]", "value": "≥ 16", "unit": "µg/mL"}, {"measurement": "MIC", "setting": "Escherichia coli [4]", "value": "≥ 16", "unit": "µg/mL"}]}, {"smiles": "COC(=O)CCC(=O)O[C@@H]1/C=C/C=C\\C[C@H](O)C[C@@H](O)/C=C/C=C/CCC[C@@H](C)OC(=O)/C=C\\C=C\\C1", "values": [{"measurement": "MIC", "setting": "Bacillus subtilis [3]", "value": "≥ 16", "unit": "µg/mL"}, {"measurement": "MIC", "setting": "Escherichia coli [4]", "value": "≥ 16", "unit": "µg/mL"}]}, {"smiles": "CC(C)=CCC/C(C)=C/C[C@@]12OC(C)(C)[C@H](Cl)C[C@]1(Cl)C(=O)c1c(O)cc(O)cc1C2=O", "values": [{"measurement": "MIC", "setting": "Staphylococcus aureus [1]", "value": "≤ 2", "unit": "µg/mL"}, {"measurement": "MIC", "setting": "Bacillus subtilis [5]", "value": "≤ 2", "unit": "µg/mL"}, {"measurement": "MIC", "setting": "Bacillus thuringiensis", "value": "≤ 2", "unit": "µg/mL"}]}, {"smiles": "CC(=O)[C@H]1[C@@H]2C=C[C@@H]3[C@H]4C/C=C\\C(=O)NCCC[C@H]5C(O)=C(C(=O)/C=C/[C@@H]4C[C@@H]3[C@H]2C[C@H]1C)C(=O)N5C", "values": [{"measurement": "MIC", "setting": "Staphylococcus aureus [9]", "value": "32 to 64", "unit": "µg/mL"}]}, {"smiles": "C[C@@H]1CCC[C@@H](O)/C=C/[C@@H]2O[C@@H]2C[C@@H](O)C/C=C\\C=C\\[C@@H](O)C/C=C/C=C\\C(=O)O1", "values": [{"measurement": "MIC", "setting": "Bacillus subtilis [3]", "value": 16, "unit": "µg/mL"}, {"measurement": "MIC", "setting": "Escherichia coli [4]", "value": 16, "unit": "µg/mL"}]}, {"smiles": "CC(C)=CCC/C(C)=C/C[C@@]12OC(C)(C)[C@H](Cl)C=C1C(=O)c1c(O)cc(O)cc1C2=O", "values": [{"measurement": "MIC", "setting": "Staphylococcus aureus [1]", "value": "4 to 32", "unit": "µg/mL"}, {"measurement": "MIC", "setting": "Bacillus subtilis [5]", "value": "4 to 32", "unit": "µg/mL"}, {"measurement": "MIC", "setting": "Bacillus thuringiensis", "value": "4 to 32", "unit": "µg/mL"}]}, {"smiles": "CCC(C)CC(C)CCCC[C@@H](O)CC(=O)N[C@@H](CCC(=O)O)C(=O)N[C@@H](CC(C)C)C(=O)N[C@@H](CC(C)C)C(=O)N[C@@H](CC(C)C)C(=O)O", "note": "(stereo partly drawn) (X1-ELLL-OH)", "values": [{"measurement": "MIC", "setting": "Staphylococcus aureus [2]", "value": 0.03, "unit": "µg/mL"}, {"measurement": "MIC", "setting": "Bacillus subtilis [3]", "value": 0.03, "unit": "µg/mL"}, {"measurement": "MIC", "setting": "Pseudomonas aeruginosa", "value": 0.01, "unit": "µg/mL"}, {"measurement": "MIC", "setting": "Salmonella typhi", "value": 0.01, "unit": "µg/mL"}]}, {"smiles": "C[C@@H]1CCC/C=C/C=C/[C@H](O)C[C@@H](O)[C@H](O)/C=C\\C=C\\[C@H](O)C/C=C/C=C\\C(=O)O1", "values": [{"measurement": "MIC", "setting": "Staphylococcus aureus [2]", "value": 0.1, "unit": "µg/mL"}, {"measurement": "MIC", "setting": "Bacillus subtilis [3]", "value": 0.1, "unit": "µg/mL"}, {"measurement": "MIC", "setting": "Escherichia coli [4]", "value": 0.1, "unit": "µg/mL"}]}, {"smiles": "CC(C)=CCC/C(C)=C/C[C@]1(O)C(=O)c2cc(O)cc(O)c2C(=O)[C@@]1(Cl)CC=C(C)C", "values": [{"measurement": "MIC", "setting": "Staphylococcus aureus [1]", "value": "≤ 2", "unit": "µg/mL"}, {"measurement": "MIC", "setting": "Bacillus subtilis [5]", "value": "≤ 2", "unit": "µg/mL"}, {"measurement": "MIC", "setting": "Bacillus thuringiensis", "value": "≤ 2", "unit": "µg/mL"}]}, {"smiles": "CO[C@@H]1[C@@H](OC(N)=O)[C@@H](O)[C@H](Oc2ccc3c(O)c(NC(=O)c4ccc(O)c(CC=C(C)C)c4)c(=O)oc3c2C)OC1(C)C", "note": "[NOVOBIOCIN]", "values": [{"measurement": "MIC", "setting": "Staphylococcus aureus [9]", "value": 0.25, "unit": "µg/mL"}]}, {"smiles": "COC(=O)[C@@]1(C)O[C@@H](C)[C@H](/C=C/C=C/C=C/C(=O)O[C@H]2CC[C@H](c3ccc4c(c3O)C(=O)C3=C(C4=O)[C@@]4(O)C(=O)[C@H](O)[C@](C)(O)C[C@@]4(O)C=C3)O[C@@H]2C)O1", "values": [{"measurement": "MIC", "setting": "Staphylococcus aureus [6]", "value": "2 to 6", "unit": "µg/mL"}]}, {"smiles": "O=C1N/C(=N\\O)C(c2ccc(O)c([N+](=O)[O-])c2)=C1c1ccc(O)c([N+](=O)[O-])c1", "values": [{"measurement": "MIC", "setting": "Bacillus subtilis [7]", "value": "3 to 25", "unit": "µg/mL"}, {"measurement": "MIC", "setting": "Micrococcus luteus", "value": "3 to 25", "unit": "µg/mL"}, {"measurement": "MIC", "setting": "Escherichia coli [8]", "value": "3 to 25", "unit": "µg/mL"}, {"measurement": "MIC", "setting": "Proteus vulgaris", "value": "3 to 25", "unit": "µg/mL"}]}, {"smiles": "O=C1NC(=O)C(c2ccc(O)c([N+](=O)[O-])c2)=C1c1ccc(O)c([N+](=O)[O-])c1", "values": [{"measurement": "MIC", "setting": "Bacillus subtilis [7]", "value": "25 to 100", "unit": "µg/mL"}, {"measurement": "MIC", "setting": "Micrococcus luteus", "value": "25 to 100", "unit": "µg/mL"}, {"measurement": "MIC", "setting": "Escherichia coli [8]", "value": "25 to 100", "unit": "µg/mL"}, {"measurement": "MIC", "setting": "Proteus vulgaris", "value": "25 to 100", "unit": "µg/mL"}]}]}
